One series deals with T1, human α7 (hα7) receptors (Homo sapiens, UniProt P36544).
T1 construct: expressed in transfected cells
The experiment in a line: whole cell patch-clamp electrophysiological recordings, hα7-expressing GH4C1 cells. Format: cell-based. As to conditions: 50 nM. (The patch-clamp technique gives a direct electrical read-out from membranes.)

A word on the melting point: it is the temperature of the solid-liquid transition.

T1 sequence (P36544 23-502): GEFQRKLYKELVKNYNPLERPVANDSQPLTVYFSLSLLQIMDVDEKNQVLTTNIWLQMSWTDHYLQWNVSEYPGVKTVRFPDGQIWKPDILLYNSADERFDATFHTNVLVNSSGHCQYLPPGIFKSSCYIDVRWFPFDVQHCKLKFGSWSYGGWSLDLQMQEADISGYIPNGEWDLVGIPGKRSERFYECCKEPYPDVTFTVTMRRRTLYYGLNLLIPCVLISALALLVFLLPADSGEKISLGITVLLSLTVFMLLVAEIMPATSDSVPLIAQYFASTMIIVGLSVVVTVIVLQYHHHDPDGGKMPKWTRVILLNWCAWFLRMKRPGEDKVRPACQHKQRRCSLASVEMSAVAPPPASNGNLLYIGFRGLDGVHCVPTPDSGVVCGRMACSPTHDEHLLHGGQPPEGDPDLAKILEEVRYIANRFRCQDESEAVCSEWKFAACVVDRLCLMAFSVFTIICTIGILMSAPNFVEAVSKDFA
Description for human α7 (hα7) receptors: α7 Subtype: The human α7 (hα7) receptors were stably expressed in transfected GH4C1 and grown in the presence of geneticin (G418 sulfate, 500 μg/mL) as previously described.^31

`c1ccc(COC2=NOC3(C2)CN2CCC3CC2)cc1` (racemic) yielded a melting point above 50 °C. On the same count and under the same terms, the result for `BrC1=NN(c2ccccc2)C2(C1)CN1CCC2CC1` (racemic) reads 203 to 207 °C.

In the case of `CN1OC2(CC1=O)CN1CCC2CC1` (racemic), the melting point fell in the range of 182 to 183 °C.

Take `CCN1C[C@]2(COC(=O)c3ccccc3N3C(=O)C[C@H](C)C3=O)CC[C@H](OC)[C@@]34[C@@H]5C[C@H]6[C@H](OC)[C@@H]5[C@](O)(C[C@@H]6OC)[C@@](O)([C@@H](OC)[C@H]23)[C@@H]14` [methyllycaconitine]: the “effect on acetylcholine-induced hα7 current” value at human α7 (hα7) receptors was “blocked”.

The values are drawn from patent publication US20090312356A1, “NICOTINIC AGONISTS SELECTIVE FOR THE ALPHA7 RECEPTOR SUBTYPE, THE PROCESS FOR THE PREPARATION THEREOF AND PHARMACEUTICAL CO[…]” (priority 2006, published 2009).
